Assay results taken from publication PMC9182211, “Structural Investigation of the Interaction Mechanism between Chlorogenic Acid and AMPA Receptor via In Silico Approaches” (Molecules, 2022).

Molecular target: T1, GluA1 (glutamate ionotropic receptor AMPA type subunit 1) (Homo sapiens, UniProt P42261)
T1 construct: gene GRIA1; Recombinant human GluA1 (AMPA subtype) protein (Abcam ab112297)
Test: SPR (Biacore T200, GluA1 immobilized on CM5 chip, steady-state fit)
Format: binding

T1 sequence (P42261 19-906): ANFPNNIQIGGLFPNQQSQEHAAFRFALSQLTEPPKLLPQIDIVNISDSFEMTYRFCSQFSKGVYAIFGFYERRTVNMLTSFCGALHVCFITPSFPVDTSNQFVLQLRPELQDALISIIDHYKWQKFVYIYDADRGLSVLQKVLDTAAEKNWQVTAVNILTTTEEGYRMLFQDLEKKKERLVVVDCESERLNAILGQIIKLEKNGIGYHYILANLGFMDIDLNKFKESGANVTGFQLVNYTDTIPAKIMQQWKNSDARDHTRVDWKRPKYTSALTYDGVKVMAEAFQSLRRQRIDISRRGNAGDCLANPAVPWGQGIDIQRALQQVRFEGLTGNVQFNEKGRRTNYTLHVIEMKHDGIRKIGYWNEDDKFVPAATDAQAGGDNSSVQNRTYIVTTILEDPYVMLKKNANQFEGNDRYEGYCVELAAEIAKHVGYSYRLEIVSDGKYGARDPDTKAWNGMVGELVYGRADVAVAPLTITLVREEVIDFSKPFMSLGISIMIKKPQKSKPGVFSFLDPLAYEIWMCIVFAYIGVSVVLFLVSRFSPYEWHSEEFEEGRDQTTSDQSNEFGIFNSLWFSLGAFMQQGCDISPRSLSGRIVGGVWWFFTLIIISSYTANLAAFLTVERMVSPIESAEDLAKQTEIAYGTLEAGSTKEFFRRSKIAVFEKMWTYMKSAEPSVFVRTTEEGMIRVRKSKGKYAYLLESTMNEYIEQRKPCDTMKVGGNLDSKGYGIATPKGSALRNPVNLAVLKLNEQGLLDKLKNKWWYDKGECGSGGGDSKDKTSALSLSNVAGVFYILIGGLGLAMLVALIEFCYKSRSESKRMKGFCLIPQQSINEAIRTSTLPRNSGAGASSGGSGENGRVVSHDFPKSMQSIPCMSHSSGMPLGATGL

- Kd: 496 µM
Compound: O=C(/C=C/c1ccc(O)c(O)c1)O[C@@H]1C[C@](O)(C(=O)O)C[C@@H](O)[C@H]1O [CGA, (1S,3R,4R,5R)-3-[(E)-3-(3,4-dihydroxyphenyl)prop-2-enoyl]oxy-1,4,5-trihydroxycyclohexane-1-carboxylic acid]
